# Key:
# HCV replicon = assay: Anti-HCV replicon assay (EC50, luciferase readout); type: cell-based; settings: Hepatitis C virus, 72 h; human hepatoma Huh-7 cell line harbouring a HCV replicon; 3 days; luciferase; read-out: EC50
# Procedure: (§1) The anti-HCV activity of the pyrido[3,2-d]pyrimidine derivatives of this invention was tested in a human hepatoma Huh-7 cell line harbouring a HCV replicon. The assay comprised the following steps:
# (§2) Step 1: Compound Preparation and Serial Dilution
# (§3) • 1. for water soluble pyrido[3,2-d]pyrimidine derivatives, a volume of 500 μL of solution in cell media (DMEM, 10% FBS, P/S, L-Glutamine) was prepared with a concentration being twice the concentration of the starting final serial dilution concentration. A volume of 150 μL of the solution was added to the pre-specified wells in column 1 of a 96-well cell culture plate (PerkinElmer, white plate, cat. #6005181, for EC50 assay; black plate, cat. #6005182 for CC50 assay). The rest of the plate, columns 2-12, was filled with 100 μL of cell media. The plate was then placed on a Precision 2000 Workstation to start the serial dilution. Compounds were diluted three times each step from column 1 to column 10. Column 11 was used as a blank control (no compound added). • 2. for pyrido[3,2-d]pyrimidine derivatives requiring DMSO to dissolve, serial dilution is performed in 50% DMSO in a 384-well plate. A solution containing a compound at 100-fold concentration of the starting final serial dilution concentration was prepared in 50% DMSO and added to the pre-specified wells in column 1 of a polypropylene 384-well plate. The plate was then placed on a Precision 2000 Workstation to start the serial dilution. After the serial dilution, a volume of 2 μL of the solution was transferred from the 384-well plate to a 96-well cell culture plate containing 100 μL of cell media on a Biomek FX Workstation. The DMSO concentration in the final assay condition was 0.5% after cells are added to the plate and the total volume in each well is brought to 200 μL. Step 2: to each well of the serial dilution plate prepared above, 100 μL of cell media containing 6000 suspended Huh-7 HCV replicon cells was added with a Multidrop workstation. The plates were incubated for 3 days at 37° C. with 5% CO2. Step 3: Detection: • a) for the EC50 assay, the media in a 96-well cell culture plate was aspirated with a Biotek EL405 plate-washer. A volume of 200 μL of a solution containing a 1:1 mixture of cell-lysis buffer (Promega, Luciferase Cell Culture Lysis 5X Reagent, cat. #E1531) and luciferase substrate solution (Promega, Luciferase Assay, cat. # E4550) was added to each well of the plate with Multidrop. The plate was incubated for 30 minutes at room temperature before the luminescence signal was measured with a TopCount plate-reader. • b) for the CC50 assay, a volume of 100 μL of pre-mixed CellTiter-Glo (Promega, cat. # G7572) solution is added directly to the cell culture in each well of the plate and the luminescence signal is measured with a TopCount plate-reader after 10 minutes of incubation at room temperature.
# (§4) Results in table 13 are expressed by the following data: • the 50% effective concentration (EC50), i.e. the concentration that protects 50% of the cell monolayer from virus-induced cythopathic effect, and • the 50% cytostatic concentration (CC50), i.e. the concentration that results in 50% inhibition of cell growth.
# [1] = CC50 assay (CellTiter-Glo) in Huh-7 HCV replicon cells; type: cell-based, human; settings: human, 50% cytostatic concentration
# Procedure: as §1, §2, §3, §4
Compound,EC50 (HCV replicon),CC50 at 3 days [1]
"Nc1nc(O[C@@H]2CCOC2)c2nc(-c3ccc(NC(=O)[C@H]4CCNC4)c(F)c3)ccc2n1 [Example 22, Pyrrolidine-3-carboxylic acid {4-[2-amino-4-(tetrahydro-furan-3-yloxy)-pyrido[3,2-d]pyrimidin-6-yl]-2-fluoro-phenyl}-amide]",< 0.3 µM,> 20 µM
"CCOc1nc(N)nc2ccc(-c3ccc(NS(C)(=O)=O)cc3)nc12 [Example 43, N-[4-(2-Amino-4-ethoxy-pyrido[3,2-d]pyrimidin-6-yl)-phenyl]-methanesulfonamide]",> 1 µM,> 20 µM
"CCOc1nc(N)nc2ccc(-c3ccc(NC(=O)C4CC4)cc3)nc12 [Example 39, Cyclopropanecarboxylic acid [4-(2-amino-4-ethoxy-pyrido[3,2-d]pyrimidin-6-yl)-phenyl]-amide]",< 0.3 µM,> 20 µM
CCOc1nc(N)nc2ccc(-c3cccc(NS(=O)(=O)c4ccc(C)cc4)c3)nc12 [Example 40],0.3 to 1 µM,> 20 µM
"CCC(=O)Nc1ccc(-c2ccc3nc(N)nc(OCCOC)c3n2)cc1 [Example 18, N-{4-[2-Amino-4-(2-methoxy-ethoxy)-pyrido[3,2-d]pyrimidin-6-yl]-phenyl}-propionamide]",0.3 to 1 µM,> 20 µM
"CCOc1nc(N)nc2ccc(-c3cccc(NS(C)(=O)=O)c3)nc12 [Example 45, N-[3-(2-Amino-4-ethoxy-pyrido[3,2-d]pyrimidin-6-yl)-phenyl]-methanesulfonamide]",< 0.3 µM,> 20 µM
"CCOc1nc(N)nc2ccc(-c3ccc(NC(=O)C(C)(C)N)cc3)nc12 [Example 37, 2-Amino-N-[4-(2-amino-4-ethoxy-pyrido[3,2-d]pyrimidin-6-yl)-phenyl]-2-methyl-propionamide]",< 0.3 µM,> 20 µM
"CC(=O)Nc1ccc(-c2ccc3nc(N)nc(N4CCS(=O)(=O)CC4)c3n2)cc1 [Example 15, N-{4-[2-Amino-4-(1,1-dioxo-1λ^6-thiomorpholin-4-yl)-pyrido[3,2-d]pyrimidin-6-yl]-phenyl}-acetamide]",< 0.3 µM,> 20 µM
"CC(C)Oc1nc(N)nc2ccc(-c3ccc(C(=O)NC4CC4)c(Cl)c3)nc12 [Example 72, 4-(2-Amino-4-isopropoxy-pyrido[3,2-d]pyrimidin-6-yl)-2-chloro-N-cyclopropyl-benzamide]",> 1 µM,> 20 µM
"CCOc1nc(N)nc2ccc(-c3ccc(Nc4nncs4)cc3)nc12 [Example 32, 4-Ethoxy-6-[4-([1,3,4]thiadiazol-2-ylamino)-phenyl]-pyrido[3,2-d]pyrimidin-2-ylamine]",0.3 to 1 µM,> 20 µM
"COc1nc(N)nc2ccc(-c3ccc(C(=O)NC4CC4)cc3)nc12 [Example 74, 4-(2-Amino-4-methoxy-pyrido[3,2-d]pyrimidin-6-yl)-N-cyclopropyl-benzamide]",0.3 to 1 µM,10 to 20 µM
"CC(C)C(=O)Nc1ccc(-c2ccc3nc(N)nc(N4CCS(=O)(=O)CC4)c3n2)cc1 [Example 14, N-{4-[2-Amino-4-(1,1-dioxo-1λ^6-thiomorpholin-4-yl)-pyrido[3,2-d]pyrimidin-6-yl]-phenyl}-isobutyramide]",< 0.3 µM,> 20 µM
"COCCOc1nc(N)nc2ccc(-c3ccc(NC(=O)OC)cc3)nc12 [Example 19, {4-[2-Amino-4-(2-methoxy-ethoxy)-pyrido[3,2-d]pyrimidin-6-yl]-phenyl}-carbamic acid methyl ester]",0.3 to 1 µM,> 20 µM
"Nc1nc(O[C@@H]2CCOC2)c2nc(-c3ccc(NC(=O)[C@H]4CCNC4)cc3)ccc2n1 [Example 24, Pyrrolidine-3-carboxylic acid {4-[2-amino-4-(tetrahydro-furan-3-yloxy)-pyrido[3,2-d]pyrimidin-6-yl]-phenyl}-amide]",> 1 µM,> 20 µM
"CC(C)CNC(=O)c1ccc(-c2ccc3nc(N)nc(OC(C)C)c3n2)cc1 [Example 64, 4-(2-Amino-4-isopropoxy-pyrido[3,2-d]pyrimidin-6-yl)-N-isobutyl-benzamide]",0.3 to 1 µM,> 20 µM
"CC(C)Oc1nc(N)nc2ccc(-c3ccc(NC(=O)C(C)C)cc3)nc12 [Example 29, N-[4-(2-amino-4-isopropoxy-pyrido[3,2-d]pyrimidin-6-yl)-phenyl]-isobutyramide]",< 0.3 µM,> 20 µM
"CCOc1nc(N)nc2ccc(-c3ccc(C(=O)Nc4ccccc4)cc3)nc12 [Example 87, 4-(2-Amino-4-ethoxy-pyrido[3,2-d]pyrimidin-6-yl)-N-phenyl-benzamide]",> 1 µM,> 20 µM
"COC(=O)Nc1ccc(-c2ccc3nc(N)nc(NCCS(C)(=O)=O)c3n2)cc1 [Example 6, {4-[2-Amino-4-(2-methanesulfonyl-ethylamino)-pyrido[3,2-d]pyrimidin-6-yl]phenyl}-carbamic acid methyl ester]",0.3 to 1 µM,10 to 20 µM
"Nc1nc(O[C@@H]2CCOC2)c2nc(-c3ccc(N4CCCC4=O)cc3)ccc2n1 [Example 28, 1-{4-[2-Amino-4-(tetrahydro-furan-3-yloxy)-pyrido[3,2-d]pyrimidin-6-yl]-phenyl}-pyrrolidin-2-one]",< 0.3 µM,> 20 µM
"COCCOc1nc(N)nc2ccc(-c3ccc(C(=O)NOC)cc3)nc12 [Example 76, 4-[2-Amino-4-(2-methoxy-ethoxy)-pyrido[3,2-d]pyrimidin-6-yl]-N-methoxy-benzamide]",0.3 to 1 µM,> 20 µM
"CCOc1nc(N)nc2ccc(-c3cccc(NS(=O)(=O)CC)c3)nc12 [Example 54, Ethanesulfonic acid [3-(2-amino-4-ethoxy-pyrido[3,2-d]pyrimidin-6-yl)-phenyl]-amide]",< 0.3 µM,> 20 µM
"CC(C)(CN1CCCC1)NC(=O)c1ccc(-c2ccc3nc(N)nc(O[C@H]4CCOC4)c3n2)cc1 [Example 80, 4-[2-Amino-4-(tetrahydro-furan-3-yloxy)-pyrido[3,2-d]pyrimidin-6-yl]-N-(1,1-dimethyl-2-pyrrolidin-1-yl-ethyl)-benzamide]",< 0.3 µM,10 to 20 µM
"COCCNc1nc(N)nc2ccc(-c3ccc(C(=O)NC4CC4)cc3)nc12 [Example 11, 4-[2-Amino-4-(2-methoxy-ethylamino)-pyrido[3,2-d]pyrimidin-6-yl]-N-cyclopropyl-benzamide]",< 0.3 µM,> 20 µM
"CCOc1nc(N)nc2ccc(-c3ccc(C(=O)NC4CCCC4)cc3)nc12 [Example 59, 4-(2-Amino-4-ethoxy-pyrido[3,2-d]pyrimidin-6-yl)-N-cyclopentyl-benzamide]",0.3 to 1 µM,> 20 µM
"CS(=O)(=O)CCNc1nc(N)nc2ccc(-c3cccc(NS(C)(=O)=O)c3)nc12 [Example 3, N-{3-[2-Amino-4-(2-methanesulfonyl-ethylamino)-pyrido[3,2-d]pyrimidin-6-yl]-phenyl}-methanesulfonamide]",0.3 to 1 µM,> 20 µM
"CCOc1nc(N)nc2ccc(-c3ccc(NC(=O)[C@H](C)N)c(F)c3)nc12 [Example 34, 2-Amino-N-[4-(2-amino-4-ethoxy-pyrido[3,2-d]pyrimidin-6-yl)-2-fluoro-phenyl]-propanamide]",< 0.3 µM,> 20 µM
"Nc1nc(O[C@H]2CCOC2)c2nc(-c3ccc(C(=O)NCCN4CCCC4)cc3)ccc2n1 [Example 83, 4-[2-Amino-4-(tetrahydro-furan-3-yloxy)-pyrido[3,2-d]pyrimidin-6-yl]-N-(2-pyrrolidin-1-yl-ethyl)-benzamide]",< 0.3 µM,> 20 µM
"CC(C)(CN1CCOCC1)NC(=O)c1ccc(-c2ccc3nc(N)nc(O[C@H]4CCOC4)c3n2)cc1 [Example 81, 4-[2-Amino-4-(tetrahydro-furan-3-yloxy)-pyrido[3,2-d]pyrimidin-6-yl]-N-(1,1-dimethyl-2-morpholin-4-yl-ethyl)-benzamide]",< 0.3 µM,> 20 µM

# — US8143394B2, “Pyrido(3,2-d)pyrimidines useful for treating viral infections” (Gilead Sciences, Inc., priority 2006, dated 2012)
